The values below come from paper PMC4331368, “HZ08 Reverse P-Glycoprotein Mediated Multidrug Resistance In Vitro and In Vivo” (PLoS ONE, 2015).

Several values for one entry are separate records, joined by “and”; a condition that tells them apart may be missing. Equal values may be shown once.

One data set has as its system KB-VCR cells. As to the kind of experiment: Cell cytotoxicity assay (CCK-8), KB-VCR. The format is cell-based, human. The settings on record: for IC50: Homo sapiens, 72 h; for IC50 / FR (fold-resistance): chemotherapeutic alone. Here is the method: (§1) Briefly, cells (2,000/well) were seeded in 96-well plate and cultured at 37°C in 5% CO2 for 24h. […] After 72 h of treatment, 15μL Cell Counting Kit-8 solution was added to each well followed by another 2 h of incubation. The absorbance at 450nm and 600nm were then measured using a SpectraMax M5 microplate reader. The curves of growth inhibition rate were fitted with GraphPad Prism 5 and the IC50 values were calculated. Each assay was conducted three times in quadruplicate

Another data set deals with KB-WT cells. The data set is described as follows: Cell cytotoxicity assay (CCK-8), KB-WT. The note with it: for IC50: Homo sapiens. The format is cell-based, human. Here is the method: as §1
For data set [1], the target named is T1, recombinant human ABCB1 membranes (Homo sapiens, UniProt P08183).
T1 construct: purchased
The data set is described as follows: P-gp ATPase activity assay (Pgp-Glo, VER-stimulated). The format is biochemical. From the text: Sodium orthovanadate (Na3VO4) was used as an ABCB1 ATPase inhibitor. […] Luminescence was initiated by ATP detection buffer.

For a further data set, the system named is KB-WT xenografts. The data set is described as follows: KB-WT tumor xenograft model. Type of data set: in vivo, Balb/c nude mice. The note with it: day 21, mean±SEM. The text has this:
(§2) All the animal experiments were approved by the Institutional Animal Care and Use Committee at China Pharmaceutical University (Permit Number: CPU1201P) and carried out in strict accordance with the recommendations in the Guide for the Care and Use of Laboratory Animals of AAALAC international. Animals were acclimated for 5 days prior to study initiation. […] If any animal was moribund due to treatment associated toxicity or tumor over-growth (≥ 2000 mm^3) before scheduled sacrifice, it would be euthanized. At the endpoint, the animals were euthanized by using CO2 and all efforts were made to minimize suffering.
(§3) Body weight and the tumor growth were monitored twice a week. Tumor size was measured to the nearest 0.1 mm using vernier caliper and applying the formula: Tumor volume = length × width^2 × 0.5. Efficacy data was graphically represented as the mean tumor volume ± standard error of the mean (SEM). Tumors were collected for further analysis after last measurement.

Data set [2] has as its target T2, P-gp (Homo sapiens, UniProt P08183).
T2 construct: expressed in transfected cells; host or cells: MDCK-MDR1 cells (canine kidney cells)
The data set is described as follows: Calcein-AM P-gp inhibition assay in MDCK-MDR1 cells. Type of data set: cell-based. The note with it: 2μM GF120918 = 100%. The protocol:
The calcein-AM assay was optimized from previous studies.[28, 29] MDCK-MDR1 cells were cultured as described above. Cells were seeded at 8,000 cells/well (100μl of culture medium) in 96-well flat clear bottom black polystyrene plates. The medium was changed 24h after seeding and the assay was performed 48 h later. On the day of study, the medium was removed and plates were washed three times with phosphate-buffered saline (PBS). Test compounds at various concentrations were added to plates in 50μl of transport buffer containing 0.5% DMSO as solvent. Plates were incubated at 37°C for 30 min. Calcein-AM was added in 50μl of PBS to yield a final concentration of 10μM.
P-gp inhibition was calculated as described previously.[29] The curves of inhibition rates were fitted with GraphPad Prism 5 and the IC50 values were calculated. Each assay was conducted three times in quadruplicate.

A further data set concerns KB-VCR xenografts. The data set is described as follows: KB-VCR tumor xenograft model. Type of data set: in vivo, Balb/c nude mice. The note with it: for mean tumor volume / tumor weight: day 21.
Text: as §2, §3

Data set [3] deals with T2, P-gp. As to the kind of experiment: MDCK-MDR1 monolayer transport assay. Type of data set: cell-based. The note with it: dog.
Experimental: MDCK-MDR1 cells could differentiate into columnar epithelium with tight junctions in three days later to form cell monolayer. […] If a drug was a P-gp substrate, its permeation from apical side (A) to basal side (B) would be inhibited and reduced, while the permeation from B to A would not be affected. When a P-gp inhibitor was added, the permeation of P-gp substrate from A to B could be increased.
MDCK-MDR1 cells were cultured in Dulbecco's MEM (DMEM) Medium supplemented with 10% fetal bovine serum (FBS) and 2 mM L-glutamine. […] The plates were incubated at 37°C with 5% CO2/95% air for 4 days and subsequently used for assays. […] Plates were incubated for 90 min in 5% CO2/95% air, 37°C CO2 incubator with slowly shaking (60 rpm). Apical and basolateral compartments were sampled at the end of the transport experiment and the tested substance concentrations in both compartments were determined by LC-MS/MS.
The apparent permeability (Papp) and efflux ratio were calculated based on the equations reported previously.[33]
[4] abbreviates: KB-WT, chemotherapeutic alone, 72 h.
The mark [5] stands for this setting: 2 mg/kg modulator + VCR 2 mg/kg.
Setting [6] is: 5 mg/kg modulator + VCR 2 mg/kg.

T1 sequence (P08183 whole entry): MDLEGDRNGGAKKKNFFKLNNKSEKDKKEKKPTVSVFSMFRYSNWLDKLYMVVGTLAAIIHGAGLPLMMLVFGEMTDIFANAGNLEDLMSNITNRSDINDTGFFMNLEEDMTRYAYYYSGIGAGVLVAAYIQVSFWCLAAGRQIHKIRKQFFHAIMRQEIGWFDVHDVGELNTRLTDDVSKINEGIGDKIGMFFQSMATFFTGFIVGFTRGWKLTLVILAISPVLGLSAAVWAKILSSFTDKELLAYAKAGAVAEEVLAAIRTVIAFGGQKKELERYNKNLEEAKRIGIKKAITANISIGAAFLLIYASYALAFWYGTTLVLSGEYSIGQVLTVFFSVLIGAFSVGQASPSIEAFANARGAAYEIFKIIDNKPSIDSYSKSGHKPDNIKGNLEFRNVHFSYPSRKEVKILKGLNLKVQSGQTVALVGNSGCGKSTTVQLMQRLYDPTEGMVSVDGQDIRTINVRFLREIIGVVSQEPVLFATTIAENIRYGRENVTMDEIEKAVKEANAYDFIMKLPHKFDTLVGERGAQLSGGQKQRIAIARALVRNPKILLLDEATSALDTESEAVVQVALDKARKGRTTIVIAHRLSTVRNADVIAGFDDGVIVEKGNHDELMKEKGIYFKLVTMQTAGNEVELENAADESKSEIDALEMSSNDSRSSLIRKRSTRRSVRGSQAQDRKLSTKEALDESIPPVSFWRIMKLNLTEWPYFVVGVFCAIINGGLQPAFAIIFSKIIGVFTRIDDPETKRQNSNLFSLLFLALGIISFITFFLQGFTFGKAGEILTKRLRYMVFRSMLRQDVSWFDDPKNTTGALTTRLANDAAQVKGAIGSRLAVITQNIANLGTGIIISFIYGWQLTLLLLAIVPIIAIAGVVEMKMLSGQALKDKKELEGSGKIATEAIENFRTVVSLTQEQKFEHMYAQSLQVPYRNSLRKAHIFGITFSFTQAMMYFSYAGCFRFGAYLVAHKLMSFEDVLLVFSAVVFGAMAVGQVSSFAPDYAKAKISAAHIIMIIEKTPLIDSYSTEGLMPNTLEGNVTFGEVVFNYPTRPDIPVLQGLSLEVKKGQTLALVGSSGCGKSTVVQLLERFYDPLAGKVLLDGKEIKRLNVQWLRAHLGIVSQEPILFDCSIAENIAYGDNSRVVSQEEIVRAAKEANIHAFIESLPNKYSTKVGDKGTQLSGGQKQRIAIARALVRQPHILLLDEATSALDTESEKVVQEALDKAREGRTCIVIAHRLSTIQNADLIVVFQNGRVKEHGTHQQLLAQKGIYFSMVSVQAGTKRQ
T2 sequence (P08183 whole entry): as above

With `CC(=O)O[C@H]1C(=O)[C@@]2(C)[C@H]([C@H](OC(=O)c3ccccc3)[C@]3(O)C[C@H](OC(=O)[C@H](O)[C@@H](NC(=O)c4ccccc4)c4ccccc4)C(C)=C1C3(C)C)[C@]1(OC(C)=O)CO[C@@H]1C[C@@H]2O` [PTX, paclitaxel], the IC50 (in general, the midpoint of a concentration-inhibition curve) with KB-VCR cells stood at 194 ± 17.7 nM; in the data set with KB-WT cells (setting [4]) it was 3.7 ± 0.9 nM. Further, the “FR (fold-resistance)” value in the data set on KB-VCR cells was 1.00; with KB-WT cells (KB-WT, chemotherapeutic alone), 1.00.
Regarding `CCCCCCCCNC(=NC#N)N1CCc2cc(OC)c(OC)cc2C1Cc1ccc(OC)c(OC)c1` (stereo not shown) [HZ08], the ATP consumed is given as 74.09±4.02 pmol ATP consumed/ μg P-gp / min in data set [1] (VER 100μM + HZ08 0.625μM); 73.10±1.34 pmol ATP consumed/ μg P-gp / min in data set [1] (VER 100μM + HZ08 1.25μM); 66.82±0.87 pmol ATP consumed/ μg P-gp / min in data set [1] (VER 100μM + HZ08 5μM); 63.11±1.71 pmol ATP consumed/ μg P-gp / min in data set [1] (VER 100μM + HZ08 10μM); 55.21±0.43 pmol ATP consumed/ μg P-gp / min in data set [1] (VER 100μM + HZ08 20μM); 41.25±3.00 pmol ATP consumed/ μg P-gp / min in data set [1] (VER 100μM + HZ08 40μM). For the same compound, the ATP consumed in data set [1] (VER 100μM + HZ08 80μM) is 34.48±1.56 pmol ATP consumed/ μg P-gp / min; in data set [1] (VER 100μM + HZ08 […]) it was 69.42±1.31 pmol ATP consumed/ μg P-gp / min. Also, the Fold stimulation was determined as 4.31 in data set [1] (VER 100μM + HZ08 0.625μM); 4.26 in data set [1] (VER 100μM + HZ08 1.25μM); 3.89 in data set [1] (VER 100μM + HZ08 5μM); 3.67 in data set [1] (VER 100μM + HZ08 10μM); 3.21 in data set [1] (VER 100μM + HZ08 20μM); 2.40 in data set [1] (VER 100μM + HZ08 40μM). Besides, the figures for the Fold stimulation in data set [1] (VER 100μM + HZ08 80μM) and in data set [1] (VER 100μM + HZ08 […]) were 2.01 and 4.04, respectively. In addition, the “cytotoxicity as single agent” value with KB-VCR cells (CCK-8, concentrations up to 20μM) was “no cytotoxicity”; in the data set on KB-WT cells (KB-WT, CCK-8, concentrations up to 20μM), “no cytotoxicity”. Besides, the “FR of DOX” value with KB-VCR cells (DOX + 5 μM modulator) is listed as 3.84; in the data set with KB-VCR cells (DOX + 10 μM modulator) it was 4.78; in the data set with KB-WT cells (KB-WT, DOX + 5 μM modulator), 0.83; in the data set with KB-WT cells (KB-WT, DOX + 10 μM modulator), 1.19. For the same compound, the “FR of PTX” value with KB-VCR cells (PTX + 5 μM modulator) is 120.06; with KB-VCR cells (PTX + 10 μM modulator) it was 131.04; in the data set with KB-WT cells (KB-WT, PTX + 5 μM modulator), 1.97; in the data set on KB-WT cells (KB-WT, PTX + 10 μM modulator) it was 2.68. Also, the “FR of VCR” value turned out to be 173.46 with KB-VCR cells (VCR + 5 μM modulator); 246.35 in the data set with KB-VCR cells (VCR + 10 μM modulator); 1.65 in the data set on KB-WT cells (KB-WT, VCR + 5 μM modulator); 3.67 in the data set with KB-WT cells (KB-WT, VCR + 10 μM modulator). The mean tumor volume in the data set with KB-WT xenografts (setting [5]) came to 1193.11±84.95 mm^3; in the data set on KB-WT xenografts (setting [6]) it was 872.92±301.72 mm^3; in the data set on KB-VCR xenografts (setting [5]), 1536.36±190.04 mm^3. For the same compound, the tumor weight in the data set with KB-WT xenografts (setting [5]) turned out to be 1.050 ± 0.080 g; in the data set with KB-WT xenografts (setting [6]), 0.845 ± 0.183 g; in the data set with KB-VCR xenografts (setting [5]), 1.222 ± 0.200 g; in the data set on KB-VCR xenografts (setting [6]) it was 0.954 ± 0.175 g. In addition, the IC50 on P-gp [2] was ~2440 nM and 2440 nM. Besides, the “tumor inhibition (tumor volume)” value in the data set on KB-VCR xenografts (5 mg/kg modulator + VCR 2 mg/kg, compared with 2 mg/kg) is “a higher tumor inhibition was observed”.
As to `CC[C@]1(O)C[C@H]2CN(CCc3c([nH]c4ccccc34)[C@@](C(=O)OC)(c3cc4c(cc3OC)N(C=O)[C@H]3[C@@](O)(C(=O)OC)[C@H](OC(C)=O)[C@]5(CC)C=CCN6CC[C@]43[C@@H]65)C2)C1` [VCR, Vincristine], the Papp A→B (usually the apparent permeability from the apical to the basolateral side of a cell layer) at 90 min, 1 μM at P-gp [3] was determined as 0.32 ± 0.1 ×10⁻⁶ cm/s. In addition, on P-gp [3], the Papp B→A (as a rule, how fast a substance crosses the layer from the basolateral side) at 90 min, 1 μM was 1.99 ± 0.28 ×10⁻⁶ cm/s. In addition, the results for the 50% inhibitory concentration (IC50) in the data set with KB-VCR cells, in the data set with KB-WT cells and with KB-WT cells (setting [4]) were 619 ± 158 nM, roughly 1.5 nM and 1.5 ± 0.2 nM, respectively. The values for the mean tumor volume in the data set with KB-WT xenografts (VCR 2 mg/kg weekly i.v. alone) and with KB-VCR xenografts (VCR 2 mg/kg weekly i.v. alone) were 1206.41±132.53 mm^3 and 2009.99±24.57 mm^3, respectively. This compound gave a tumor weight with KB-VCR xenografts (VCR 2 mg/kg alone) of 1.623 ± 0.233 g.
Turning to `COc1cccc2c1C(=O)c1c(O)c3c(c(O)c1C2=O)C[C@@](O)(C(=O)CO)C[C@@H]3O[C@H]1C[C@H](N)[C@H](O)[C@H](C)O1` [DOX, Doxorubicin], the IC50 with KB-VCR cells stood at 245 ± 39.8 nM; with KB-WT cells (setting [4]) it was 47.3 ± 19.7 nM. The “FR (fold-resistance)” value in the data set on KB-VCR cells is 1.00; in the data set on KB-WT cells (KB-WT, chemotherapeutic alone), 1.00.
Turning to `COc1ccc(CCN(C)CCCC(C#N)(c2ccc(OC)c(OC)c2)C(C)C)cc1OC` (stereo not shown) [VER, verapamil], the “FR of DOX” value amounted to 3.21 with KB-VCR cells (DOX + 10 μM modulator) and 1.27 with KB-WT cells (KB-WT, DOX + 10 μM modulator). Besides, the “FR of PTX” value was determined as 20.6 in the data set with KB-VCR cells (PTX + 10 μM modulator) and 2.03 with KB-WT cells (KB-WT, PTX + 10 μM modulator). For the same compound, the “FR of VCR” value in the data set on KB-VCR cells (VCR + 10 μM modulator) is recorded as 82.74; in the data set with KB-WT cells (KB-WT, VCR + 10 μM modulator), 1.83.
